In US6900200B2, “Tricyclic hydroxy carboxamides and derivatives thereof tocolytic oxytocin receptor antagonists” (Wyeth, priority 2001, dated 2005) one finds inhibition and IC50 data, which are given here for 15 molecules.

One experiment addresses T1, human oxytocin receptor (Homo sapiens, UniProt P30559).
T1 construct: host or cells: CHO cells, pcDNA3.1 vector
T1 sequence (P30559 1-389): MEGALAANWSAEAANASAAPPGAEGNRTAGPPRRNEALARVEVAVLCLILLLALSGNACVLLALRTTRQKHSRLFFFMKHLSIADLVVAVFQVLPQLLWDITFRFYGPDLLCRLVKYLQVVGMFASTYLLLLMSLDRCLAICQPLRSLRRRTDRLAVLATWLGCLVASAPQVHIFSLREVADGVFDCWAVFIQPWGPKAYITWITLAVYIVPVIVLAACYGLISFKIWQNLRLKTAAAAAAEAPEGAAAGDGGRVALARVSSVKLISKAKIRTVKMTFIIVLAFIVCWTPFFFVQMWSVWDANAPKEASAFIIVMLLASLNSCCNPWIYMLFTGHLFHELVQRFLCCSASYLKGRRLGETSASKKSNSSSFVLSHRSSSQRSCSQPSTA
Description: Oxytocin binding in CHO cell membranes expressing human oxytocin receptors ([3H]oxytocin radioligand binding). The note with it: @ 100 nM, read-out: OT % inhibition @ 100 nM. From the text:
Oxytocin Binding in Chinese Hamster Ovary Cell Membranes Expressing Human Oxytocin Receptors
Chinese Hamster Ovary (CHO) cells stably transfected with the human oxytocin receptor (cf. Tanizawa et al., U.S. Pat. No. 5,466,584 (1995) to Rohto Pharmaceutical Co. Ltd., Osaka, Japan) were obtained from M. Thibonnier, Case Western Reserve University School of Medicine, Cleveland, Ohio.
A. Passaging and Amplification of Cells
CHO cells transfected with the human oxytocin receptors obtained from M. Thibonnier (pcDNA3.1 vector) are allowed to grow to confluency (approx. >90%) in T-150 flasks under sterile conditions, in a cell culture medium of F-12 Nutrient Mixture (HAM) with L-glutamine (Gibco Cat. #11765-054) containing 15 mM HEPES (Gibco Cat. #15630-080), 1% antibiotic/antimycotic (add 5 mL 100×, Gibco Cat. #15240-062 per 500 mL F-12), 400 μg/mL of Geneticin (add 4 mL of 50 mg/mL per 500 mL F-12) and 10% Fetal Bovine Serum (Qualified, heat inactivated, Gibco Cat. #16140-063). The medium is removed by aspiration and the cells are washed with 10 mL of Hank's Balanced Salt solution (Gibco Cat. #14175-095). The salt solution is removed by aspiration and the cells trypsinized with 5 mL of trypsin-EDTA (0.05% trypsin, 0.53 mM EDTA-4Na, Gibco Cat. #25300-070) for 1 min. The trypsin is removed by aspiration and the cells dislodged by tapping. Cell Culture medium (e.g. 30 mL for 1:30 split) is immediately added and mixed well to inactivate trypsin. 1 mL of detached cells is added to new culture flasks containing fresh Cell Culture medium (e.g. into 25 mL per T-150 flask), and mixed gently. The cells are incubated at 37° C. in 5% CO2. The medium is changed at 3 to 4 days interval (or as appropriate). The cells grow to confluency (approx. >75%-95%) within 7-8 days. All steps are done under sterile conditions.
The cells are washed twice gently with Hank's Balanced Salt solution (e.g., use 10 mL per T-1 50 flask). The excess solution is removed and the cells bathed for 15-30 min. in an enzyme-free Cell Dissociation Buffer (e.g., use 8 mL Hank's Based, Gibco Cat. #13150-016 per T-150 flask) until cells are loosened. The contents are transferred to centrifuge tubes (50 mL size) kept in ice bath. All subsequent steps are done at 4° C. The tubes are centrifuged at 300×g for 15 min (1380 rpm on SORVAL, Model RT6000D, using rotor for 50 mL tubes). The supernatant is discarded and the cells suspended in homogenizing buffer (10 mM Tris-HCl containing 0.25 M sucrose and 1 mM EDTA, pH 7.4) ensuring that the volume of the buffer is about ten times the volume of the cell pellet. The cells are pooled into a centrifuge tube (50 mL) and homogenized with a Polytron at setting 6 for 10 sec. The homogenate is transferred into a Potter-Elvjehm homogenizer and homogenized with 3 strokes. The homogenate is centrifuged at 1500×g for 10 min at 4° C. (3100 rpm using SORVAL, model RT6000D, using rotor for 50 mL tubes). The pellet is discarded. The supernatant is centrifuged at 100,000×g for 60 min. at 4° C. (Beckman L8-80M ultracentrifuge; spin at 37,500 rpm with rotor type 70 Ti for 50 mL tubes; 38,000 rpm with type 80Ti for 15 mL tubes; or 35,800 rpm with rotor type 45Ti). The supernantant is discarded and the pellet suspended in 3 to 4 mL of Tris buffer (50 mM TRIS—HCl, pH 7.4). The protein content is estimated by the Bradford or Lowry method. The volume of the membrane suspension is adjusted with the membrane buffer (50 mM Tris-HCl containing 0.1% BSA and 0.1 mM PMSF) to give 3.0 mg/mL (or as appropriate) of protein. The membranes are aliquoted and stored at −70° C.
C. Radioligand Binding Assay
In wells of a 96-well format microtiter plate, is added 90, 110 or 130 μL (to make up a final volume of 200 μL) of assay buffer containing 50 mM of Tris-HCl (pH 7.4), […], 1 mg % aprotinin, 1 mg % leupeptin, 2 mg % 1,10-phenanthroline, 10 mg % trypsin inhibitor, and 0.1 mM PMSF. […]
What is called inhibition is the relative decrease from the control value, in per cent. For the molecule `COc1ccccc1-c1ccc(C(=O)N2Cc3ccc(C(=O)N(C)C[C@H](O)CO)n3Cc3ccccc32)cc1C` (single isomer, unassigned) [Example 15], the inhibition at 0.1 µM is 101%.
Consider `COc1ccccc1-c1ccc(C(=O)N2Cc3ccc(C(=O)N(C)C[C@@H](O)CO)n3Cc3ccccc32)cc1C` (single isomer, unassigned) [Example 16], for which the inhibition at 0.1 µM stood at 101%.

Still in this experiment, the particulars now being: value printed in parentheses, read-out: OT (IC50).
By IC50 is commonly meant the concentration that gives 50% inhibition. Take `COc1cc(C(=O)N2Cc3ccc(C(=O)N(C)C[C@@H](O)[C@H](O)[C@H](O)[C@@H](O)CO)n3Cc3ccccc32)ccc1-c1ccccc1C(F)(F)F` (stereo in doubt) [Example 23, 10-{[2-Methoxy-2′-trifluoromethyl-[1,1′-biphenyl]-4-yl]carbonyl}-N-methyl-N-[(2R,3S,4R,5S)-2,3,4,5,6-pentahydroxyhexyl]-10,11-dihydro-5H-pyrrolo[2,1-c][1,4]benzodiazepine-3-carboxamide]: the IC50 worked out at 4.09 nM.
In the case of `Cc1cc(C(=O)N2Cc3ccc(C(=O)N(CCO)CCO)n3Cc3ccccc32)ccc1-c1ccccc1C(F)(F)F` [Example 1, 10-[(2-Methyl-2′-trifluoromethyl-[1,1′-biphenyl]-4-yl)carbonyl]-10,11-dihydro-5H-pyrrolo[2,1-c][1,4]benzodiazepine-3-carboxylic acid bis-(2-hydroxy-ethyl)-amide], the IC50 stood at 1.37 nM.
Consider `Cc1cc(C(=O)N2Cc3ccc(C(=O)N(C)CC(O)CO)n3Cc3ccccc32)ccc1-c1ccccc1C(F)(F)F` (stereo not drawn) [Example 2, 10-[(2-Methyl-2′-trifluoromethyl-[1,1′-biphenyl]-4-yl)carbonyl]-10,11-dihydro-5H-pyrrolo[2,1-c][1,4]benzodiazepine-3-carboxylic acid (2,3-dihydroxy-propyl)-methyl-amide], for which the IC50 came to 3.09 nM.
Consider `Cc1cc(C(=O)N2Cc3ccc(C(=O)NC(CO)(CO)CO)n3Cc3ccccc32)ccc1-c1ccccc1C(F)(F)F` [Example 3, 10-[(2-Methyl-2′-trifluoromethyl-[1,1′-biphenyl]-4-yl)carbonyl]-10,11-dihydro-5H-pyrrolo[2,1-c][1,4]benzodiazepine-3-carboxylic acid (2-hydroxy-1,1-bis-hydroxymethyl-ethyl)-amide], for which the IC50 was 6.53 nM.
On the same count and under the same terms, the result for `Cc1cc(C(=O)N2Cc3ccc(C(=O)N(C)C[C@H](O)[C@@H](O)[C@H](O)[C@H](O)CO)n3Cc3ccccc32)ccc1-c1ccccc1C(F)(F)F` [Example 4, 10-[(2-Methyl-2′-trifluoromethyl-[1,1′-biphenyl]-4-yl)carbonyl]-10,11-dihydro-5H-pyrrolo[2,1-c][1,4]benzodiazepine-3-carboxylic acid methyl-((2S,3R,4R,5R)-2,3,4,5,6-pentahydroxy-hexyl)-amide] reads 3.43 nM.
Still for that read-out and setting: under `Cc1cc(C(=O)N2Cc3ccc(C(=O)N4CCN(C[C@H](O)CO)CC4)n3Cc3ccccc32)ccc1-c1ccccc1C(F)(F)F` [Example 5, (2S)-3-{4-[(10-{[2-Methyl-2′-trifluoromethyl-[1,1′-biphenyl]-4-yl]carbonyl}-10,11-dihydro-5H-pyrrolo[2,1-c][1,4]benzodiazepin-3-yl)carbonyl]piperazin-1-yl}propane-1,2-diol] stands 35.8 nM; under `Cc1cc(C(=O)N2Cc3ccc(C(=O)N4CCN(C[C@@H](O)CO)CC4)n3Cc3ccccc32)ccc1-c1ccccc1C(F)(F)F` [Example 6, (2R)-3-{4-[(10-{[2-Methyl-2′-trifluoromethyl-[1,1′-biphenyl]-4-yl]carbonyl}-10,11-dihydro-5H-pyrrolo[2,1-c][1,4]benzodiazepin-3-yl)carbonyl]piperazin-1-yl}propane-1,2-diol], 25.1 nM; under `COCCN1CCN(C(=O)c2ccc3n2Cc2ccccc2N(C(=O)c2ccc(-c4ccccc4C(F)(F)F)c(C)c2)C3)CC1` [Example 7, Methyl 2-{4-[(10-{[2-methyl-2′-trifluoromethyl-[1,1′-biphenyl]-4-yl]carbonyl}-10,11-dihydro-5H-pyrrolo[2,1-c][1,4]benzodiazepin-3-yl)carbonyl]piperazin-1-yl}ethyl ether], 30.7 nM.
`COC[C@H](O)CN1CCN(C(=O)c2ccc3n2Cc2ccccc2N(C(=O)c2ccc(-c4ccccc4C(F)(F)F)c(C)c2)C3)CC1` [Example 8, (2R)-1-Methoxy-3-{4-[(10-{[2-methyl-2′-trifluoromethyl-[1,1′-biphenyl]-4-yl]carbonyl}-10,11-dihydro-5H-pyrrolo[2,1-c][1,4]benzodiazepin-3-yl)carbonyl]piperazin-1-yl}propan-2-ol]: the IC50 stood at 7.55 nM.
Consider `COC[C@@H](O)CN1CCN(C(=O)c2ccc3n2Cc2ccccc2N(C(=O)c2ccc(-c4ccccc4C(F)(F)F)c(C)c2)C3)CC1` [Example 9, [3-({4-[(2S)-2-Hydroxy-3-methoxypropyl]-1-piperazinyl}carbonyl)-5H-pyrrolo[2,1-c][1,4]benzodiazepin-10(11H)-yl][2-methyl-2′-trifluoromethyl-[1,1′-biphenyl]-4-yl]methanone], for which the IC50 was 26.7 nM.
On to `COCC(CN(C)C(=O)c1ccc2n1Cc1ccccc1N(C(=O)c1ccc(-c3ccccc3C(F)(F)F)c(C)c1)C2)OC` (stereo not drawn) [Example 10, N-(2,3-Dimethoxypropyl)-N-methyl-10-{[2-methyl-2′-trifluoromethyl-[1,1′-biphenyl]-4-yl]carbonyl}-10,11-dihydro-5H-pyrrolo[2,1-c][1,4]benzodiazepine-3-carboxamide], for which the concentration for half-maximal inhibition (IC50) came out at 5.31 nM.
For `Cc1cc(C(=O)N2Cc3ccc(C(=O)N(C)CC4COC(=O)O4)n3Cc3ccccc32)ccc1-c1ccccc1C(F)(F)F` (stereo not drawn) [Example 11, 10-[(2-Methyl-2′-trifluoromethyl-[1,1′-biphenyl]-4-yl)carbonyl]-10,11-dihydro-5H-pyrrolo[2,1-c][1,4]benzodiazepine-3-carboxylic acid methyl-[(2-oxo-[1,3]dioxolan-4-yl)methyl]-amide], the 50% inhibitory concentration (IC50) was 3.66 nM.
For `Cc1cc(C(=O)N2Cc3ccc(C(=O)N(C)C[C@@H]4OC(=O)O[C@H]4[C@H](O)[C@H]4COC(=O)O4)n3Cc3ccccc32)ccc1-c1ccccc1C(F)(F)F` [Example 12, N-[((4S,5S)-5-{(R)-Hydroxy[(4R)-2-oxo-1,3-dioxolan-4-yl]methyl}-2-oxo-1,3-dioxolan-4-yl)methyl]-N-methyl-10-{[2-methyl-2′-(trifluoromethyl)[1,1′-biphenyl]-4-yl]carbonyl}-10,11-dihydro-5H-pyrrolo[2,1-c]benzodiazepine-3-carboxamide], the IC50 is 4.27 nM.
